Source: PubChem BioAssay AID280 (DTP/NCI, 2004)
Values joined by “and” are separate entries in the source; they are usually repeats but may differ in a detail not shown here. Equal values may be shown once. Inconclusive results and toxic doses are left out. Starred links: 1 amine or outer side, 2 acyl side, 3 side chain; linkers in the order of their positions; H or OH if unused. Positions of bridges follow the written chain, without caps; N, C: chain ends. Non-standard residues stand in square brackets, D forms with d. Residues, ends and D or L forms follow the SMILES beside them. Chains are numbered I, II in the order given. Actinocin(9to1) = Cc1c2oc3c(C)ccc(C(=O)[*:1])c3nc-2c(C(=O)[*:2])c(N)c1=O; aThr = C[C@H](O)[C@H](N)C(=O)O; NMeV = CN[C@H](C(=O)O)C(C)C; Sar = CNCC(=O)O

Test system: nude mice, LOX melanoma ip, survival T/C
Assay: NCI In Vivo Anticancer Drug Screen. Data for tumor model Human Amelanotic Melanoma (LOX) (intraperitoneal) in NU/NU BALB/C (nude) mice
Conditions: endpoint: median survival time, higher = longer survival
Method: The antitumor activity of compounds was measured in mice bearing transplantable tumors. Survival or tumor size were measured and the results are expressed as the measurement made in the treated group (T) divided by the measurement made in the vehicle treated control group (C). The tumor model used in this assay is Human Amelanotic Melanoma (LOX) (intraperitoneal) in NU/NU BALB/C (nude) mice

[1] = dose: 25.0 mg/kg/injection, schedule: Q04DX003 (ip), vehicle: Klucel (hydroxypropylcellulose) (HPC)
[2] = dose: 50.0 mg/kg/injection, schedule: Q04DX003 (ip), vehicle: Klucel (hydroxypropylcellulose) (HPC)
[3] = dose: 100.0 mg/kg/injection, schedule: Q04DX003 (ip), vehicle: Klucel (hydroxypropylcellulose) (HPC)
[4] = dose: 200.0 mg/kg/injection, schedule: Q04DX003 (ip), vehicle: Klucel (hydroxypropylcellulose) (HPC)
[5] = dose: 400.0 mg/kg/injection, schedule: Q04DX003 (ip), vehicle: Klucel (hydroxypropylcellulose) (HPC)
[6] = dose: 75.0 mg/kg/injection, schedule: Q04DX003 (ip), vehicle: Klucel (hydroxypropylcellulose) (HPC)
[7] = dose: 150.0 mg/kg/injection, schedule: Q04DX003 (ip), vehicle: Klucel (hydroxypropylcellulose) (HPC)
[8] = dose: 300.0 mg/kg/injection, schedule: Q04DX003 (ip), vehicle: Klucel (hydroxypropylcellulose) (HPC)
[9] = dose: 25.0 mg/kg/injection, schedule: Q04DX003 (ip), vehicle: saline with Tween-80
[10] = dose: 50.0 mg/kg/injection, schedule: Q04DX003 (ip), vehicle: saline with Tween-80
[11] = dose: 100.0 mg/kg/injection, schedule: Q04DX003 (ip), vehicle: saline with Tween-80
[12] = dose: 200.0 mg/kg/injection, schedule: Q04DX003 (ip), vehicle: saline with Tween-80
[13] = dose: 12.5 mg/kg/injection, schedule: Q04DX003 (ip), vehicle: saline with Tween-80

SMILES: CN(C)c1ccc2c(Nc3ccc(NS(C)(=O)=O)cc3)c3ccc(N(C)C)cc3nc2c1
- T/C [1]: 101 % of control
- T/C [2]: 98 % of control
- T/C [3]: 113 % of control
- T/C [4]: 163 % of control
- T/C [5]: 109 % of control

SMILES: CO[C@@]12[C@@H]3N[C@@H]3CN1C1=C(C(=O)C(NCC3CCCO3)=C(C)C1=O)[C@@H]2COC(N)=O (stereo partly drawn)
- T/C (dose: 12.5 mg/kg/injection, schedule: Q04DX003 (ip), vehicle: distilled water + Tween-80): 154 % of control
- T/C (dose: 25.0 mg/kg/injection, schedule: Q04DX003 (ip), vehicle: distilled water + Tween-80): 160 % of control
- T/C (dose: 50.0 mg/kg/injection, schedule: Q04DX003 (ip), vehicle: distilled water + Tween-80): 215 % of control

SMILES: O=C(NC(Cc1ccc(I)cc1)C(=O)O)c1cccc(Br)c1 (stereo not drawn)
- T/C [2]: 112 % of control
- T/C [6]: 105 % of control
- T/C [3]: 112 % of control
- T/C [7]: 89 % of control
- T/C [4]: 103 % of control
- T/C [8]: 96 % of control
- T/C [5]: 87 % of control

SMILES: Cc1cccc(OCC(O)CN2CC2)c1 (stereo not drawn)
- T/C [9]: 104 % of control
- T/C [10]: 122 % of control and 99 % of control
- T/C [11]: 121 % of control
- T/C [12]: 122 % of control

SMILES: [Na+]
- T/C (dose: 75.0 mg/kg/injection, schedule: Q04DX003 (ip), vehicle: water): 104 % of control
- T/C (dose: 150.0 mg/kg/injection, schedule: Q04DX003 (ip), vehicle: water): 95 % of control
- T/C (dose: 300.0 mg/kg/injection, schedule: Q04DX003 (ip), vehicle: water): 108 % of control
- T/C (dose: 1200.0 mg/kg/injection, schedule: Q04DX003 (ip), vehicle: water): 99 % of control

SMILES: Cc1c2oc3c(C)ccc(C(=O)N[C@@H]4C(=O)N[C@H](C(C)C)C(=O)N5CCC[C@H]5C(=O)N(C)CC(=O)N(C)[C@@H](C(C)C)C(=O)O[C@H]4C)c3nc-2c(C(=O)N[C@@H]2C(=O)N[C@H](C(C)C)C(=O)N3CCC[C@H]3C(=O)N(C)CC(=O)N(C)[C@@H](C(C)C)C(=O)O[C@H]2C)c(N)c1=O (I: [aThr][dV]P[Sar][NMeV] / II: [aThr][dV]P[Sar][NMeV]; ester I:1-I:C, II:1-II:C; linker I:N-II:N via Actinocin(9to1))
- T/C (dose: 0.07 mg/kg/injection, schedule: Q04DX003 (ip), vehicle: saline): 185 % of control
- T/C (dose: 0.13 mg/kg/injection, schedule: Q01DX001 (ip), vehicle: saline): 151 % of control
- T/C (dose: 0.13 mg/kg/injection, schedule: Q04DX003 (ip), vehicle: saline): 269 % of control
- T/C (dose: 0.25 mg/kg/injection, schedule: Q01DX001 (ip), vehicle: saline): 153 % of control
- T/C (dose: 0.25 mg/kg/injection, schedule: Q04DX003 (ip), vehicle: saline): 337 % of control
- T/C (dose: 0.5 mg/kg/injection, schedule: Q01DX001 (ip), vehicle: saline): 264 % of control
- T/C (dose: 0.5 mg/kg/injection, schedule: Q04DX003 (ip), vehicle: saline): 337 % of control
- T/C (dose: 1.0 mg/kg/injection, schedule: Q01DX001 (ip), vehicle: saline): 337 % of control
- T/C (dose: 1.3 mg/kg/injection, schedule: Q04DX003 (ip), vehicle: saline): 87 % of control
- T/C (dose: 0.13 micrograms/kg/injection, schedule: Q01DX005 (ip), vehicle: saline): 162 % of control
- T/C (dose: 0.13 micrograms/kg/injection, schedule: Q01DX015 (ip), vehicle: saline): 207 % of control
- T/C (dose: 25.0 micrograms/kg/injection, schedule: Q01DX005 (ip), vehicle: saline): 191 % of control
- T/C (dose: 25.0 micrograms/kg/injection, schedule: Q01DX015 (ip), vehicle: saline): 337 % of control
- T/C (dose: 50.0 micrograms/kg/injection, schedule: Q01DX005 (ip), vehicle: saline): 337 % of control
- T/C (dose: 50.0 micrograms/kg/injection, schedule: Q01DX015 (ip), vehicle: saline): 337 % of control
- T/C (dose: 100.0 micrograms/kg/injection, schedule: Q01DX005 (ip), vehicle: saline): 337 % of control
- T/C (dose: 100.0 micrograms/kg/injection, schedule: Q01DX015 (ip), vehicle: saline): 337 % of control

SMILES: BrC[P+](CBr)(CBr)CBr
- T/C [10]: 113 % of control
- T/C [11]: 121 % of control
- T/C [12]: 105 % of control
- T/C (dose: 400.0 mg/kg/injection, schedule: Q04DX003 (ip), vehicle: saline with Tween-80): 103 % of control
- T/C (dose: 800.0 mg/kg/injection, schedule: Q04DX003 (ip), vehicle: saline with Tween-80): 119 % of control

SMILES: CCCCCC1c2cc(O)ccc2OC1N1CCOCC1 (stereo not drawn)
- T/C [9]: 111 % of control
- T/C [10]: 100 % of control
- T/C [12]: 86 % of control

SMILES: COc1cccc2c1C(=O)c1c(O)c3c(c(O)c1C2=O)C[C@](O)(C(=O)CO)CC3OC1CC(N)C(OC2CCCCO2)C(C)O1 (stereo partly drawn)
- T/C (dose: 0.94 mg/kg/injection, schedule: Q04DX003 (ip), vehicle: water): 122 % of control
- T/C (dose: 7.5 mg/kg/injection, schedule: Q04DX003 (ip), vehicle: water): 160 % of control
- T/C (dose: 15.0 mg/kg/injection, schedule: Q04DX003 (ip), vehicle: water): 150 % of control

SMILES: O=C1c2ccccc2C(=O)c2c1cn1c2Cc2ccccc2C1
- T/C (dose: 6.25 mg/kg/injection, schedule: Q04DX003 (ip), vehicle: Klucel (hydroxypropylcellulose) (HPC)): 91 % of control
- T/C [1]: 93 % of control
- T/C [2]: 109 % of control and 95 % of control
- T/C [3]: 90 % of control
- T/C [4]: 91 % of control
- T/C [5]: 95 % of control

SMILES: Nc1nc2c(C(=O)N3CCCC3)nnn2c2ccccc12
- T/C [13]: 96 % of control
- T/C [9]: 102 % of control
- T/C [10]: 92 % of control

SMILES: CO[C@H](/C(C)=C/C=C/C(C)=C/c1coc(C)n1)[C@H](C)[C@H]1C[C@@H](O)[C@@]2(C)O[C@H]2/C=C/[C@@H](C)[C@@H]2C[C@@H](CC(=O)O2)C[C@H]2O[C@@H]2C(=O)O1
- T/C (dose: 0.09 mg/kg/injection, schedule: Q01DX009 (ip), vehicle: other): 176 % of control
- T/C (dose: 0.12 mg/kg/injection, schedule: Q04DX003 (ip), vehicle: other): 121 % of control
- T/C (dose: 0.13 mg/kg/injection, schedule: Q01DX009 (ip), vehicle: other): 180 % of control
- T/C (dose: 0.2 mg/kg/injection, schedule: Q01DX009 (ip), vehicle: other): 175 % of control
- T/C (dose: 0.2 mg/kg/injection, schedule: Q04DX003 (ip), vehicle: other): 108 % of control
- T/C (dose: 0.3 mg/kg/injection, schedule: Q01DX009 (ip), vehicle: other): 152 % of control and 196 % of control
- T/C (dose: 0.44 mg/kg/injection, schedule: Q01DX009 (ip), vehicle: other): 162 % of control
- T/C (dose: 0.55 mg/kg/injection, schedule: Q04DX003 (ip), vehicle: other): 122 % of control
- T/C (dose: 0.66 mg/kg/injection, schedule: Q01DX009 (ip), vehicle: other): 93 % of control

SMILES: Clc1cccc(Cl)c1C(Nc1nncs1)Nc1nncs1
- T/C [10]: 106 % of control
- T/C [11]: 106 % of control

SMILES: O=[N+]([O-])c1ccc(N(CCO)CCO)c2c1no[n+]2[O-]
- T/C (dose: 6.25 mg/kg/injection, schedule: Q04DX003 (ip), vehicle: saline with Tween-80): 99 % of control
- T/C [13]: 106 % of control
- T/C [9]: 111 % of control
- T/C [10]: 93 % of control
- T/C [11]: 115 % of control

SMILES: C=CC1(C)CC(=O)C2(O)C(C)(O1)C(OC(C)=O)C(O)C1C(C)(C)CCC(O)C12C (stereo not drawn)
- T/C (dose: 8.0 mg/kg/injection, schedule: Q04DX003 (ip), vehicle: DMSO): 102 % of control
- T/C (dose: 16.0 mg/kg/injection, schedule: Q04DX003 (ip), vehicle: DMSO): 103 % of control
- T/C (dose: 32.0 mg/kg/injection, schedule: Q04DX003 (ip), vehicle: DMSO): 102 % of control
- T/C (dose: 64.0 mg/kg/injection, schedule: Q04DX003 (ip), vehicle: DMSO): 91 % of control

SMILES: CO[C@@H]1C2=CC=CC=C[C@H]2n2c(=O)n(C)c(=O)n21
- T/C (dose: 37.5 mg/kg/injection, schedule: Q04DX003 (ip), vehicle: other): 104 % of control
- T/C (dose: 75.0 mg/kg/injection, schedule: Q04DX003 (ip), vehicle: other): 105 % of control
- T/C (dose: 150.0 mg/kg/injection, schedule: Q04DX003 (ip), vehicle: other): 102 % of control

SMILES: Nc1ccn([C@@H]2C=C(CO)[C@@H](O)[C@H]2O)c(=O)n1
- T/C (dose: 1.0 mg/kg/injection, schedule: Q01DX009 (ip), vehicle: saline): 219 % of control

SMILES: CCCCCC[Se][Se]CCCCCC
- T/C (dose: 37.5 mg/kg/injection, schedule: Q04DX003 (ip), vehicle: Klucel (hydroxypropylcellulose) (HPC)): 98 % of control
- T/C [6]: 96 % of control
- T/C [7]: 93 % of control
- T/C [8]: 105 % of control
